Measured values reported in patent publication US10093675B2, “6,8-disubstituted-9-(heterocyclyl)purines, compositions containing these derivatives and their use in cosmetic and medicinal applications” (USTAV EXPERIMENTALNI BOTANIKY AV CR, V.V.I., priority 2014, dated 2018).
Like-named read-outs stand apart in the source and are kept apart here.

What was measured:
[1] = system: Human diploid fibroblast BJ; assay: In vitro cytotoxic activity (MTT); format: cell-based; conditions: 72 hours incubation; concentration causing 20% decrease in mitochondrial dehydrogenase activity
[2] = system: breast carcinoma cell line MCF-7; assay: In vitro cytotoxic activity (Calcein AM), MCF-7; format: cell-based, human; conditions: read-out: Cell line tested/IC50 (μmol/L) MCF7
In short: (§1)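 Cells (2.500-30.000 per well) were pre-incubated 24 hours, then exposed for 72 hours at 37° C, 5% CO2 to six 3-fold dilutions, top usually 100 μM, in triplicate. Calcein AM (1 μg/ml final) was added for 1 hour; fluorescence gave growth inhibition, and GI50 came from dose-response curves.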

[3] = system: normal diploid fibroblasts BJ; assay: In vitro cytotoxic activity (Calcein AM), BJ; format: cell-based, human; conditions: 72 hours, read-out: Cell line tested/IC50 (μmol/L) BJ
In short: as §1

[4] = system: Salmonella typhimurium histidien auxotrophs TA98 and TA100; assay: Ames test; format: cell-based; conditions: 2.5 to 5000 μg/plate; presence and absence of Aroclor-induced rat liver S9
In short: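 Strains TA98 and TA100 exposed to compounds in DMSO at 2.5, 5.0, 15, 50, 500, 1500 and 5000 μg/plate following standard Ames/Maron protocols.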

[5] = system: T-lymphoblastic leukemia cell line CEM; assay: In vitro cytotoxic activity (Calcein AM), CEM; format: cell-based, human; conditions: 72 hours, read-out: Cell line tested/IC50 (μmol/L) CEM
In short: as §1

[6] = system: melanoma cell line G-361; assay: In vitro cytotoxic activity (Calcein AM), G-361; format: cell-based, human; conditions: read-out: Cell line tested/IC50 (μmol/L) G-361
In short: as §1

[7] = system: osteosarcoma cell line HOS; assay: In vitro cytotoxic activity (Calcein AM), HOS; format: cell-based, human; conditions: 72 hours, read-out: Cell line tested/IC50 (μmol/L) HOS
In short: as §1

[8] = system: cytokinin-dependent tobacco callus Nicotiana tabacum L. cv. Wisconsin 38; assay: Plant cell division: growth of cytokinin-dependent tobacco callus; format: cell-based; conditions: for Activity (%); (s.d.): relative activity at concentration with highest activity, 10^−6 M kinetin set at 100%; for Concentration with highest activity (mol/l): tobacco callus fresh weight increase after four weeks, tested 10^−8 M to 10^−4 M
[9] = system: erytroid leukemia cell line K-562; assay: In vitro cytotoxic activity (Calcein AM), K-562; format: cell-based, human; conditions: read-out: Cell line tested/IC50 (μmol/L) K-562
In short: as §1

SMILES | GI20 [1] | IC50 ([2]; Homo sapiens, MCF7, 72 hours) | IC50 ([3]; Homo sapiens, Fibroblast) | mutagenic response [4] | IC50 ([5]; Homo sapiens) | IC50 ([6]; Homo sapiens, G-361, 72 hours) | IC50 ([7]; Homo sapiens) | Activity (%); (s.d.) [8] | IC50 ([9]; Homo sapiens, K562, 72 hours) | IC50 ([2]; 72 hours) | IC50 [3] | IC50 [5] | IC50 ([6]; 72 hours) | IC50 [7] | Concentration with highest activity (mol/l) [8] | IC50 ([9]; 72 hours)
C/C(=C\CNc1ncnc2c1nc(Br)n2C1CCCCO1)CO (stereo not shown) [Compound 24, (E)-8-Bromo-6-(4-hydroxy-3-methylbut-2-en-1-ylamino)-9-(tetrahydropyran-2-yl)-9H-purine] | >100 µM | > 50 µmol/L | > 50 µmol/L | no positive mutagenic responses | > 50 µmol/L | > 50 µmol/L | > 50 µmol/L | 128 (±8) % | > 50 µmol/L |  |  |  |  |  |  | 
Fc1cccc(CNc2ncnc3c2nc(Br)n3C2CCCCO2)c1 (stereo not shown) [Compound 26] | >100 µM |  |  | no positive mutagenic responses |  |  |  | 117 (±4) % |  | > 50 µmol/L | > 50 µmol/L | > 50 µmol/L | > 50 µmol/L | > 50 µmol/L | 10^−6-10^−5 mol/l | > 50 µmol/L
Fc1ccc(CNc2ncnc3c2nc(Br)n3C2CCCCO2)cc1F (stereo not shown) [Compound 27] | >100 µM |  |  | no positive mutagenic responses |  |  |  | 115 (±4) % |  | > 50 µmol/L | > 50 µmol/L | > 50 µmol/L | > 50 µmol/L | > 50 µmol/L | 10^−6-10^−5 mol/l | > 50 µmol/L
C/C(=C\CNc1ncnc2c1nc(Cl)n2C1CCCO1)CO (stereo not shown) [Compound 64] | >100 µM |  |  | no positive mutagenic responses |  |  |  | 130 (±10) % |  | > 50 µmol/L | > 50 µmol/L | > 50 µmol/L | > 50 µmol/L | > 50 µmol/L | 10^−6-10^−4 mol/l | > 50 µmol/L
COc1cccc(CNc2ncnc3c2nc(Cl)n3C2CCCO2)c1 (stereo not shown) [Compound 69] | >100 µM |  |  | no positive mutagenic responses |  |  |  | 111 (±5) % |  | > 50 µmol/L | > 50 µmol/L | > 50 µmol/L | > 50 µmol/L | > 50 µmol/L | 10^−6-10^−4 mol/l | > 50 µmol/L
COc1nc2c(NCc3ccco3)ncnc2n1C1CCCCO1 (stereo not shown) [Compound 124, 6-Furfurylamino-8-methoxy-9-(tetrahydropyran-2-yl)-9H-purine] | >100 µM | > 50 µmol/L | > 50 µmol/L | no positive mutagenic responses | > 50 µmol/L | > 50 µmol/L | > 50 µmol/L | 105 (±2) % | > 50 µmol/L |  |  |  |  |  |  | 
CSc1nc2c(NCc3ccco3)ncnc2n1C1CCCCO1 (stereo not shown) [Compound 145, 6-Furfurylamino-8-methylsulfanyl-9-(tetrahydropyran-2-yl)-9H-purine] | >100 µM | > 50 µmol/L | > 50 µmol/L | no positive mutagenic responses | > 50 µmol/L | > 50 µmol/L | > 50 µmol/L | 103 (±5) % | > 50 µmol/L |  |  |  |  |  |  | 
